pIC50: −log10 of the molar value. Activity calls are given as the source filed them. The calls are words filed in the database; no cut-off is given here.
Experiments:
Mus musculus [1] = test: In vivo inhibition of ERK phosphorylation in BALB/c nude mouse xenografted with rat L6 cells harboring FGFR1 V561M mutant assessed as suppression of ERK level in tumor at 60 mg/kg by Western blotting analysis; assay type: functional, organism-based
Mus musculus [2] = test: In vivo inhibition of AKT phosphorylation in BALB/c nude mouse xenografted with human NCI-H1581 cells assessed as reduction in AKT phosphorylation level in tumor by Western blotting analysis; assay type: functional, organism-based
A549 [3] = test: Inhibition of AKT (unknown origin) phosphorylation in human A549 cells at 250 to 1000 nM by Western blotting analysis; assay type: cell-based; conditions: dose 250-1000 nM
A549 [4] = test: Inhibition of cell migration in human A549 cells at 10 to 40 nM incubated for 48 hrs by crystal violet staining based transwell assay; assay type: functional; conditions: dose 10-40 nM
NCI-H1581 [5] = test: cells; conditions: Homo sapiens, NCI-H1581, 48 h
Description: Antiproliferative activity against human NCI-H1581 cells assessed as inhibition of cell proliferation incubated for 48 hrs by MTT assay

[6] = Toxicity in ICR mouse assessed as change in lung weight at 80 mg/kg, po measured after 7 days; assay type: organism-based; conditions: in vivo, 168 h, time 7 day
[7] = Toxicity in BALB/c nude mouse xenografted with human NCI-H1581 cells assessed as change in lung weight and measured after 14 days; assay type: tissue-based; conditions: 336 h, time 14 day
NCI-H1581 [8] = test: Inhibition of cell migration in human NCI-H1581 cells incubated upto 72 hrs by wound healing assay; assay type: functional, cell-based; conditions: dose 10-40 µM
[9] = Nephrotoxicity in ICR mouse assessed as change in Cr level at 80 mg/kg, po; assay type: toxicity, organism-based; conditions: in vivo
[10] = Toxicity in BALB/c nude mouse xenografted with human NCI-H1581 cells assessed as change in AST level at 60 mg/kg; assay type: organism-based; conditions: in vivo
[11] = Toxicity in BALB/c nude mouse xenografted with human NCI-H1581 cells assessed as change in body weight
[12] = Toxicity in ICR mouse assessed as change in heart weight at 80 mg/kg, po measured after 7 days; assay type: organism-based; conditions: in vivo, 168 h, time 7 day
[13] = Toxicity in BALB/c nude mouse xenografted with human NCI-H1581 cells assessed as change in kidney weight and measured after 14 days; assay type: tissue-based; conditions: 336 h, time 14 day
[14] = molecular target: Fibroblast growth factor receptor 3 (Homo sapiens, UniProt P22607, V555L); test: Inhibition of FGFR3 V555L mutant (unknown origin) by caliper mobility shift assay
Fibroblast growth factor receptor 3 (Homo sapiens, UniProt P22607, V555L), sequence (P22607 23-806 V555L limits assumed): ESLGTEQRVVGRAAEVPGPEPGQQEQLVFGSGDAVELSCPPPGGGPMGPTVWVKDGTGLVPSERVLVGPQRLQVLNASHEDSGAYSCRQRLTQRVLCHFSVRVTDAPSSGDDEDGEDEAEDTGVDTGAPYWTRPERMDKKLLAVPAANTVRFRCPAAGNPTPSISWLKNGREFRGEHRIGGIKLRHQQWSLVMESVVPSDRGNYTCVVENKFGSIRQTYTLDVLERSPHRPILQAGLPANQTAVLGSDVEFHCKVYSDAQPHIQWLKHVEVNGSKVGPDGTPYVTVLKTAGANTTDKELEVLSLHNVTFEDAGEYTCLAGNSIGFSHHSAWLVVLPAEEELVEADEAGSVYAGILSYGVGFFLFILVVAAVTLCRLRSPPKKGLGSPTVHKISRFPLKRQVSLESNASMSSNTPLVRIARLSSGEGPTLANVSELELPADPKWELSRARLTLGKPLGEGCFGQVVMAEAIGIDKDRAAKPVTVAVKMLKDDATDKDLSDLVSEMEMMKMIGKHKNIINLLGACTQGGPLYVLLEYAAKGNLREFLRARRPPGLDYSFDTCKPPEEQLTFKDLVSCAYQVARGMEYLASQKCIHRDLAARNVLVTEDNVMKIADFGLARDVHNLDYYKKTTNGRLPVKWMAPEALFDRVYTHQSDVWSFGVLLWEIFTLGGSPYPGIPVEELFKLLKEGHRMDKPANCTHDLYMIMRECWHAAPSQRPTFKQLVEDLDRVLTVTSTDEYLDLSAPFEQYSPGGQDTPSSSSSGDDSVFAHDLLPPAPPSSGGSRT

[15] = molecular target: Fibroblast growth factor receptor 2 (Homo sapiens, UniProt P21802, V564I)
Fibroblast growth factor receptor 2 (Homo sapiens, UniProt P21802, V564I), sequence (P21802 22-821 V564I limits assumed): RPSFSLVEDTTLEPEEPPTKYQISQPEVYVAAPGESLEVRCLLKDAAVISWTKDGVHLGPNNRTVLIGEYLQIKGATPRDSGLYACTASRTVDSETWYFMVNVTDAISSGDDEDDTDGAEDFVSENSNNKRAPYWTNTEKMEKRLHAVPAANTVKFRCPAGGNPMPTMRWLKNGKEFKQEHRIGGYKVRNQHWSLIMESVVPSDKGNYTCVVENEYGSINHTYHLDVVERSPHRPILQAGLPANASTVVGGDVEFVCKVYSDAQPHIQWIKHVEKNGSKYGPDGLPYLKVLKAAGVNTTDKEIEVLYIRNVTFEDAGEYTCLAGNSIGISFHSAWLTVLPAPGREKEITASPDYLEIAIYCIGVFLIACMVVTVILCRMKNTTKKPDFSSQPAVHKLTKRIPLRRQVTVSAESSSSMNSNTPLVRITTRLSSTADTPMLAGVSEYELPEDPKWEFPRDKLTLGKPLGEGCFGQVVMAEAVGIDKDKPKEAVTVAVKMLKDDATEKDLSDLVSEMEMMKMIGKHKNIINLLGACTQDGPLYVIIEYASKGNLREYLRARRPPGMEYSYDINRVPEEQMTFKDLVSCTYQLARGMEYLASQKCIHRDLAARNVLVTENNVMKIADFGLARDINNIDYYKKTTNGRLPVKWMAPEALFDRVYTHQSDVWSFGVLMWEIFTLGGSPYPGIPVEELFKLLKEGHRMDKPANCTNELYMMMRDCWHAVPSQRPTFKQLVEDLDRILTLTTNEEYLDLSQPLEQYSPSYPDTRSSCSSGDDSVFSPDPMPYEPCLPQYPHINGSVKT

[16] = molecular target: Fibroblast growth factor receptor 3 (Homo sapiens, UniProt P22607); test: Binding affinity to FGFR3 (unknown origin) at 0.1 uM
Fibroblast growth factor receptor 3 (Homo sapiens, UniProt P22607), sequence (P22607 23-806 limits assumed): as the sequence (P22607 23-806 V555L limits assumed) above, with L533V counted along it

[17] = Toxicity in BALB/c nude mouse xenografted with human NCI-H1581 cells assessed as change in liver weight and measured after 14 days; conditions: 336 h, time 14 day
[18] = molecular target: Fibroblast growth factor receptor 2 (Homo sapiens, UniProt P21802); test: Covalent irreversible binding affinity to FGFR2 (unknown origin) by MALDI-TOF MS analysis
Fibroblast growth factor receptor 2 (Homo sapiens, UniProt P21802), sequence (P21802 22-821 limits assumed): as the sequence (P21802 22-821 V564I limits assumed) above, with I543V counted along it

NCI-H1581 [19] = test: Inhibition of AKT (unknown origin) phosphorylation in human NCI-H1581 cells at 40 nM by Western blotting analysis; assay type: cell-based
Mus musculus [20] = test: In vivo inhibition of FGFR1 signaling pathway in BALB/c nude mouse xenografted with rat L6 cells harboring FGFR1 V561M mutant assessed as suppression of FGFR1 phosphorylation in tumor at 60 mg/kg by Western blotting analysis; assay type: functional, organism-based
A549 [21] = test: Inhibition of colony formation in human A549 cells at 0.25 to 1.0 uM incubated for 48 hrs by crystal violet staining based assay; assay type: functional, cell-based; conditions: dose 0.25-1 µM
[22] = Half life in male Sprague-Dawley rat at 2 mg/kg, iv by UHPLC-MS/MS analysis; assay type: ADME, organism-based; conditions: in vivo
[23] = Toxicity in ICR mouse assessed as histopathological changes in kidney at 80 mg/kg, po by H and E staining based analysis; assay type: organism-based; conditions: in vivo
[24] = Toxicity in BALB/c nude mouse xenografted with human NCI-H1581 cells assessed as change in spleen weight and measured after 14 days; conditions: 336 h, time 14 day
[25] = Hepatotoxicity in ICR mouse assessed as change in ALT level at 80 mg/kg, po; assay type: toxicity, organism-based; conditions: in vivo
[26] = molecular target: Fibroblast growth factor receptor 3 (Homo sapiens, UniProt P22607, V555M)
Fibroblast growth factor receptor 3 (Homo sapiens, UniProt P22607, V555M), sequence (P22607 23-806 V555M limits assumed): as the sequence (P22607 23-806 V555L limits assumed) above, with L533M counted along it

[27] = Toxicity in BALB/c nude mouse xenografted with human NCI-H1581 cells assessed as change in heart weight and measured after 14 days; assay type: tissue-based; conditions: 336 h, time 14 day
[28] = molecular target: Platelet-derived growth factor receptor beta (Homo sapiens) (UniProt P09619); test: Inhibition of PDGFRbeta (unknown origin)
Platelet-derived growth factor receptor beta (Homo sapiens), sequence (P09619 whole entry): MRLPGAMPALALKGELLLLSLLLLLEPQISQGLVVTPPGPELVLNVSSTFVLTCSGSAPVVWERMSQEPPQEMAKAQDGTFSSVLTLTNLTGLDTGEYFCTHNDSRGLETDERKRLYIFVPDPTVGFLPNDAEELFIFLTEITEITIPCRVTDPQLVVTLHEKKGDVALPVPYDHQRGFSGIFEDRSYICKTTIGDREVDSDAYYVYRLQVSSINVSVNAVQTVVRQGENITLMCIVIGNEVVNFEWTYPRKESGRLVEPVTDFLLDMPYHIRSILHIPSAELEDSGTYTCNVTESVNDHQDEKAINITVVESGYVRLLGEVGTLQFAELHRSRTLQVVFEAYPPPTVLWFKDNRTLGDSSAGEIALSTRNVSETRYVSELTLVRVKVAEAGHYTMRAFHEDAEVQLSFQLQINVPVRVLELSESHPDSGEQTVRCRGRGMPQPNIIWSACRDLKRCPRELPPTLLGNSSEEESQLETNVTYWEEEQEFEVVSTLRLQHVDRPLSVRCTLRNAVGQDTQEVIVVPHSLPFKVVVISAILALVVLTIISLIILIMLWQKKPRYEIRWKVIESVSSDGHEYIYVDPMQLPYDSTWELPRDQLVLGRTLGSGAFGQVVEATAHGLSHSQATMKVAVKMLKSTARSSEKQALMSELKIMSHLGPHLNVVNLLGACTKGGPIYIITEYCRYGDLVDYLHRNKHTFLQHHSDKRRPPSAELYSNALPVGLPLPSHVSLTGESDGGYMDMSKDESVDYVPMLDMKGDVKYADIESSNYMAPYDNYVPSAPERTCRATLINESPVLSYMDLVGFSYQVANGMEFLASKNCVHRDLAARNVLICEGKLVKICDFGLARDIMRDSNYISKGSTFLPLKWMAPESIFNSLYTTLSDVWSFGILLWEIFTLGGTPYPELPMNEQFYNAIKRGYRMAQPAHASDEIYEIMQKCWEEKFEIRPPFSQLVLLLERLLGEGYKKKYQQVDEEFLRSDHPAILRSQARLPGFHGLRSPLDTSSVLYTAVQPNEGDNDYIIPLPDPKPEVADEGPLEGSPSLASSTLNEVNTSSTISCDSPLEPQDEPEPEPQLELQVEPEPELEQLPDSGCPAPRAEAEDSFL

[29] = Cmax in male Sprague-Dawley rat at 10 mg/kg, po by UHPLC-MS/MS analysis; assay type: ADME, organism-based; conditions: in vivo
[30] = AUC(0 to infinity) in male Sprague-Dawley rat at 10 mg/kg, po by UHPLC-MS/MS analysis; assay type: ADME, organism-based; conditions: in vivo
[31] = molecular target: Epidermal growth factor receptor (Homo sapiens) (UniProt P00533); test: Inhibition of EGFR (unknown origin)
Epidermal growth factor receptor (Homo sapiens), sequence (P00533 whole entry): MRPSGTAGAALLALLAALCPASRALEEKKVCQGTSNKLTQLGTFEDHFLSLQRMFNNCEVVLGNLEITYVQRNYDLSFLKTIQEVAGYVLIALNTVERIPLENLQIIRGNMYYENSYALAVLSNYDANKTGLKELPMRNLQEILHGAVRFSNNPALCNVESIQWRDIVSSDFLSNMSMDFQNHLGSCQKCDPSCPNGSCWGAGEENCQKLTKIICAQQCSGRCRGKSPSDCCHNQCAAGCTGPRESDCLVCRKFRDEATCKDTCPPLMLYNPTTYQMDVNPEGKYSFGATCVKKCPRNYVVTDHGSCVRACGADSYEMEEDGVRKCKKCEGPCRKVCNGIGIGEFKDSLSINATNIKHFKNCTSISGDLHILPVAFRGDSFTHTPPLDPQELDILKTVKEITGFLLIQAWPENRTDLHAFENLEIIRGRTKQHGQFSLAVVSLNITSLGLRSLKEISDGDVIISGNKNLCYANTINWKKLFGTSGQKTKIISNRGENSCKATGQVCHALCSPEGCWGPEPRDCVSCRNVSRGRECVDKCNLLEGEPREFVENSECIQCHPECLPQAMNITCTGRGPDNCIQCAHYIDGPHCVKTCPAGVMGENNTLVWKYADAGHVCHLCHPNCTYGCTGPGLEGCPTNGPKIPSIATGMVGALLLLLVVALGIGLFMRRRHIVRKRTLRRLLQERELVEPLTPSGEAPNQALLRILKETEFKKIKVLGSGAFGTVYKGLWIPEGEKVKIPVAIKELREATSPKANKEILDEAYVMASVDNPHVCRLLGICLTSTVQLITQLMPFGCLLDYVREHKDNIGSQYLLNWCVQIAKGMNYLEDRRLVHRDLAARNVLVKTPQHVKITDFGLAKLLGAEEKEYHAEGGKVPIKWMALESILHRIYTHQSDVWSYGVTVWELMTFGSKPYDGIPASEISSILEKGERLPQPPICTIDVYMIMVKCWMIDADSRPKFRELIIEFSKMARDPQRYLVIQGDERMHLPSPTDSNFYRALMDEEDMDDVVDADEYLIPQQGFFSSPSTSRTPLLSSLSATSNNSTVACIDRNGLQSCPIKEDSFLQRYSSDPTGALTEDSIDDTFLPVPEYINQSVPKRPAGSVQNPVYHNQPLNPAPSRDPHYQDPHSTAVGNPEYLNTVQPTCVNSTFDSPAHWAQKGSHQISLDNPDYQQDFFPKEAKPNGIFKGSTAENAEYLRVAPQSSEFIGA

[32] = Half life in male Sprague-Dawley rat at 10 mg/kg, po by UHPLC-MS/MS analysis; assay type: ADME, organism-based; conditions: in vivo
A549 [33] = test: cells; conditions: Homo sapiens, A549, 48 h
Description: Antiproliferative activity against human A549 cells assessed as inhibition of cell proliferation incubated for 48 hrs by MTT assay

NCI-H1581 [34] = test: Antitumor activity against human NCI-H1581 cells xenografted in BALB/c nude mouse assessed as inhibition of tumor cell proliferation by Ki-67 staining based analysis; assay type: functional
NCI-H1581 [35] = test: Antitumor activity against human NCI-H1581 cells xenografted in BALB/c nude mouse assessed as induction of apoptosis in tumor by H and E staining based analysis; assay type: functional, cell-based
NCI-H1581 [36] = test: Inhibition of DNA replication in human NCI-H1581 cells incubated for 1 hrs by EdU staining based analysis; assay type: functional, cell-based; conditions: dose 100.0 µM
[37] = Toxicity in ICR mouse assessed as change in spleen weight at 80 mg/kg, po measured after 7 days; assay type: organism-based; conditions: in vivo, 168 h, time 7 day
[38] = Toxicity in BALB/c nude mouse xenografted with rat L6 cells harboring FGFR V561M mutant assessed as change in body weight at 30 to 60 mg/kg and measured daily; assay type: organism-based; conditions: in vivo, dose 30-60 mg/kg
NCI-H1581 [39] = test: Inhibition of colony formation in human NCI-H1581 cells at 10 nM incubated for 48 hrs by crystal violet staining based assay; assay type: functional, cell-based
NCI-H1581 [40] = test: Inhibition of cell adhesion in human NCI-H1581 cells by crystal violet staining based analysis; assay type: functional; conditions: dose 10-40 nM
[41] = Toxicity in ICR mouse assessed as change in liver weight at 80 mg/kg, po measured after 7 days; assay type: organism-based; conditions: in vivo, 168 h, time 7 day
[42] = Oral bioavailability in male Sprague-Dawley rat at 2 mg/kg, iv by UHPLC-MS/MS analysis; assay type: ADME, organism-based; conditions: in vivo
A549 [43] = test: Inhibition of DNA replication in human A549 cells incubated for 1 hrs by EdU staining based analysis; assay type: functional, cell-based; conditions: dose 10-40 µM
NCI-H1581 [44] = test: Antitumor activity against human NCI-H1581 cells xenografted in BALB/c nude mouse assessed as tumor growth inhibition at 60 mg/kg relative to control; assay type: functional; conditions: read-out: TGI

Q: What does the source list for `C=CC(=O)Nc1ccc(Nc2nc(Nc3ccc(N4C[C@@H](C)N[C@@H](C)C4)c(OC)c3)ncc2Cl)cc1Cl`?
A: inhibition (Mus musculus [1]): Active; inhibition (Mus musculus [2]): Active; inhibition (A549 [3]): Dose-dependent-effect; inhibition (A549 [4]): Active; pIC50 (NCI-H1581 [5]): 7.74; Activity [6]: Non-toxic; Activity [7]: Non-toxic; inhibition (NCI-H1581 [8]): Dose-dependent-effect; Activity [9]: Non-toxic; Activity [10]: Non-toxic; Activity [11]: Non-toxic; Activity [12]: Non-toxic; Activity [13]: Non-toxic; pIC50 [14]: 8.66; pIC50 [15]: 7.52; Activity [16]: Not active; Reduced Affinities Observed; Activity [17]: Non-toxic; Activity [18]: Active; inhibition (NCI-H1581 [19]): Active; Greater Inhibition Observed Compared To Infigratinib; inhibition (Mus musculus [20]): Active; inhibition (A549 [21]): Active; half-life [22]: 3.55 h; Activity [23]: Non-toxic; Activity [24]: Non-toxic; Activity [25]: Non-toxic; pIC50 [26]: 8.37; Activity [27]: Non-toxic; inhibition [28]: Not active; Moderate To Weak Inhibitory Activity Observed; Cmax [29]: 2250 ng/mL; AUC(0-inf) [30]: 12900 ng·h/mL; inhibition [31]: Not active; Moderate To Weak Inhibitory Activity Observed; half-life [32]: 5.18 h; pIC50 (A549 [33]): 6.42; Activity (NCI-H1581 [34]): Active; Activity (NCI-H1581 [35]): Active; inhibition (NCI-H1581 [36]): Dose-dependent-effect; Activity [37]: Non-toxic; Activity [38]: Non-toxic; inhibition (NCI-H1581 [39]): Active; Stronger Inhibition Observed; inhibition (NCI-H1581 [40]): Dose-dependent-effect; Activity [41]: Non-toxic; bioavailability [42]: 47.7%; inhibition (A549 [43]): Dose-dependent-effect; inhibition in vivo at 60 mg/kg (NCI-H1581 [44]): 61%

Source: ChEMBL document CHEMBL6103630, “Discovery of Novel 2,4,5-Trisubstituted Pyrimidine Derivatives as Potent and Selective FGFR Inhibitors against Gatekeeper Mutants for the Treatment of NSCLC” (J Med Chem, 2025)
